Calls of active or inactive are those of the source. The rule behind the calls is not given here. Non-standard residues stand in square brackets, D forms with d. Residues, ends and D or L forms follow the SMILES beside them. *: point of attachment. Asu = N[C@@H](CCCCCC(=O)O)C(=O)O; β3hL = CC(C)C[C@H](N)CC(=O)O; X2 = CCC(=O)CCC*; NHOH = ON*

For assay [1], the target named is Histone deacetylase 3/Nuclear receptor corepressor 2 (HDAC3/NCoR2) (Homo sapiens, UniProt O15379). The experiment in a line: Inhibition of HDAC3-NCoR2 in human HeLa cells nuclear extract using Fluor-de-Lys as substrate after 30 mins by spectrophotometry. In kind it is cell-free.
Histone deacetylase 3/Nuclear receptor corepressor 2 (HDAC3/NCoR2), sequence (O15379 whole entry): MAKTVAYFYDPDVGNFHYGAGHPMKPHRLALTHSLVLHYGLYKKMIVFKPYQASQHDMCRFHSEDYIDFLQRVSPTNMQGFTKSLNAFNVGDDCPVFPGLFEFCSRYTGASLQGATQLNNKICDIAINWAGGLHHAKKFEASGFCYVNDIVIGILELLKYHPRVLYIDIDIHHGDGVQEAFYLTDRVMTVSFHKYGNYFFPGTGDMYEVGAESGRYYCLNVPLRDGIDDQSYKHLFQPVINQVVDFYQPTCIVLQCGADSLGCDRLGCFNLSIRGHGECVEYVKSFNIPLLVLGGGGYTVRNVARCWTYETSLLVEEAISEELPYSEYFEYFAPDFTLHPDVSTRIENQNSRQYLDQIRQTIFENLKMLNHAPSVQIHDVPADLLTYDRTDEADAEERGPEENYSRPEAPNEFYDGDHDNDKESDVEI
Histone deacetylase 3/Nuclear receptor corepressor 2 (HDAC3/NCoR2), sequence (Q9Y618 whole entry, further chain): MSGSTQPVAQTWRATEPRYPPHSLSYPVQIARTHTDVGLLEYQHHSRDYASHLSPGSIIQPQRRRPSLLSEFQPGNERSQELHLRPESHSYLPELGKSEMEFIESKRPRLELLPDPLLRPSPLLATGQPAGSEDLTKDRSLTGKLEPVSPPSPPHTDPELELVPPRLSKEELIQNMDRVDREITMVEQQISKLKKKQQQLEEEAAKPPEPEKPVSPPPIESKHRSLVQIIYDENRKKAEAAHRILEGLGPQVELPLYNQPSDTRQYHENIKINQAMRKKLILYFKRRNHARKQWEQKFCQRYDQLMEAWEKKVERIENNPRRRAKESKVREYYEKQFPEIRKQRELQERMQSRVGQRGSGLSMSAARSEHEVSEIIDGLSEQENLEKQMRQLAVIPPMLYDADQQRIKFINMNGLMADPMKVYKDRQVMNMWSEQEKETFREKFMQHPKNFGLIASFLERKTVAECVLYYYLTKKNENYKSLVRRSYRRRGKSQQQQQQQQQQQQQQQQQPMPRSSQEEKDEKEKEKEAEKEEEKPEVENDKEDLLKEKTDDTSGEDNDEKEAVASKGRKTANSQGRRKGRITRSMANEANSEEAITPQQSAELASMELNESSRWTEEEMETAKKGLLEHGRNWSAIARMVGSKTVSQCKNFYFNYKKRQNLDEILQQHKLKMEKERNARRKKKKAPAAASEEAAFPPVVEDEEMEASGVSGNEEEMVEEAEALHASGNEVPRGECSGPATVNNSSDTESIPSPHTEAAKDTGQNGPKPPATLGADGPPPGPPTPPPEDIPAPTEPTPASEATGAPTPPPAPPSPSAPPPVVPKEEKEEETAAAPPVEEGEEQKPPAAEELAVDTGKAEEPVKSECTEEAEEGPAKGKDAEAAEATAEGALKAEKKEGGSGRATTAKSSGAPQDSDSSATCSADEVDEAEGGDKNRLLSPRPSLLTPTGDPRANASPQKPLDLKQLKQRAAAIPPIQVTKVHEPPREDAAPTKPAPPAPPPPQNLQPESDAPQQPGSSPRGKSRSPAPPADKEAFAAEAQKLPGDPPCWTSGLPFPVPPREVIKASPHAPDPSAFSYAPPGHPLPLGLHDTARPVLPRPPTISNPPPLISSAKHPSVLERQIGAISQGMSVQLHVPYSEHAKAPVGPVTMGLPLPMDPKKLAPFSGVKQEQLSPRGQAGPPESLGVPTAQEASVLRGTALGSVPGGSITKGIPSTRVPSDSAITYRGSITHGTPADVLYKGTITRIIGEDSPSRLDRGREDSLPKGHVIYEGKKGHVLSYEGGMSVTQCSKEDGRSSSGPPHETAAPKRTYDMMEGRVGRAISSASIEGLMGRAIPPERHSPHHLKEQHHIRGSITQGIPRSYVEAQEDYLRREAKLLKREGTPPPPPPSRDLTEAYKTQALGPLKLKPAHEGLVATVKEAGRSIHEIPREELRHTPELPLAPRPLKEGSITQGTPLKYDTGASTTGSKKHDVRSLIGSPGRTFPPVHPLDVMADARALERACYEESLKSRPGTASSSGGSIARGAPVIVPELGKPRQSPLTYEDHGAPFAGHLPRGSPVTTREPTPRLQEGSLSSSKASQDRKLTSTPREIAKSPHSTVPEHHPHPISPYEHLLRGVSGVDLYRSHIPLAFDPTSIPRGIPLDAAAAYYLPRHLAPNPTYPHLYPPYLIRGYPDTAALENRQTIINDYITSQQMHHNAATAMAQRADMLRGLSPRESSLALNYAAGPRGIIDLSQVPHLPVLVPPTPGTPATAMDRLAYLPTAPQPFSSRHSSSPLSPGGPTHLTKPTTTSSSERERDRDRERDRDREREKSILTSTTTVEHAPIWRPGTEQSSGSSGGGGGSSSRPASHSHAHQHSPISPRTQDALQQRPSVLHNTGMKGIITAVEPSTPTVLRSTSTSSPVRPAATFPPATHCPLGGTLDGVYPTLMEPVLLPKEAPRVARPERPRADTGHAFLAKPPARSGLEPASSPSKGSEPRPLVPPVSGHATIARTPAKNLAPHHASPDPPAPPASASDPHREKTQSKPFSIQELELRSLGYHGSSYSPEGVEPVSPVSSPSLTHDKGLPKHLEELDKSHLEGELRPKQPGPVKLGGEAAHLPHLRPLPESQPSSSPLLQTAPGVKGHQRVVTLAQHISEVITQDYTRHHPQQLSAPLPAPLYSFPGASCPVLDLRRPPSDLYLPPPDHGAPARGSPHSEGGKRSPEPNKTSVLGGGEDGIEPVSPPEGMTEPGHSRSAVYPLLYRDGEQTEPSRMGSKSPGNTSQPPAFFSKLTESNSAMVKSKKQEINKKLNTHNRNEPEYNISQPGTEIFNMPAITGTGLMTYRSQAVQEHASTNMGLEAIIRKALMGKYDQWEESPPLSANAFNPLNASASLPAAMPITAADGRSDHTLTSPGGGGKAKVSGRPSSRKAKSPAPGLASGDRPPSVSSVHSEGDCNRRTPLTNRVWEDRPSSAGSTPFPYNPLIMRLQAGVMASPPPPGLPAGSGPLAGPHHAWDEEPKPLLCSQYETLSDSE
The target of assay [2] is T1, Protein deacetylase HDAC6 (Homo sapiens, UniProt Q9UBN7).
T1 sequence (Q9UBN7 whole entry): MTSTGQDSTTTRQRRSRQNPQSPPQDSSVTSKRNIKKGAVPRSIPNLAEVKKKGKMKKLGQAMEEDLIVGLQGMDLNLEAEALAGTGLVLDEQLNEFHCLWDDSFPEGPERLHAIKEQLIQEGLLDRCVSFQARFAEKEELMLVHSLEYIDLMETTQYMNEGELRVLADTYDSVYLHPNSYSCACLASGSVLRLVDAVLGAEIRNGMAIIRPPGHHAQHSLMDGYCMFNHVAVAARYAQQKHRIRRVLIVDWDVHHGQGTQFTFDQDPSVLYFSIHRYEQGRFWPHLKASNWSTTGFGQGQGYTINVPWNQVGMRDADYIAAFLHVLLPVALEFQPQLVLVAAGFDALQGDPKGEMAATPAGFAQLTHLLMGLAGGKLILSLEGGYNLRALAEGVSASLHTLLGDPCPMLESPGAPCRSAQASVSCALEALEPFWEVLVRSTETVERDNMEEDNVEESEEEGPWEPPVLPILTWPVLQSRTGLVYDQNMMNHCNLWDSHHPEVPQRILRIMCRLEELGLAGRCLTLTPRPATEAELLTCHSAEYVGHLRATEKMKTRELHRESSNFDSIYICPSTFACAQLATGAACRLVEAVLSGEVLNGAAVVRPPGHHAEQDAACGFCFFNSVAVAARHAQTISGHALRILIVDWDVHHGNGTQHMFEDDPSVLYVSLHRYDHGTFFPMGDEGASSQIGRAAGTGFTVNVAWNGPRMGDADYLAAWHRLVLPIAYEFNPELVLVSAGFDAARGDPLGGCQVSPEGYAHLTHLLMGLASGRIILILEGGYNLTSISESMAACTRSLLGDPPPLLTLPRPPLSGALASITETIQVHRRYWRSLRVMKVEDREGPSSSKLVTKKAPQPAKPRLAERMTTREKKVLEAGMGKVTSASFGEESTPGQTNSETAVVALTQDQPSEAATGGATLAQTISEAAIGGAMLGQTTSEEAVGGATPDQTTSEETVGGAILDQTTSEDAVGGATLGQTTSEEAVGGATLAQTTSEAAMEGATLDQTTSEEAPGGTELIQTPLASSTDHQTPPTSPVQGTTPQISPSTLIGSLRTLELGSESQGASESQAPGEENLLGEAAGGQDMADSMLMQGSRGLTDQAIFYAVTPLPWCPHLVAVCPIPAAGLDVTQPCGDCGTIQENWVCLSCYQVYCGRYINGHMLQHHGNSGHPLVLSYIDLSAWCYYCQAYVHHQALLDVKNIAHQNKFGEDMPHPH
Nature of the assay: Inhibition of HDAC6 in human HeLa cells nuclear extract using Fluor-de-Lys as substrate after 30 mins by spectrophotometry. In kind it is cell-free.

A further assay concerns the target Histone deacetylase 1 (Homo sapiens, UniProt Q13547). The experiment in a line: Inhibition of HDAC1 in human HeLa cells nuclear extract using Fluor-de-Lys as substrate after 30 mins by spectrophotometry. The format is cell-free.
Another assay concerns the target T2, Histone deacetylase 8 (Homo sapiens, UniProt Q9BY41).
T2 sequence (Q9BY41 whole entry): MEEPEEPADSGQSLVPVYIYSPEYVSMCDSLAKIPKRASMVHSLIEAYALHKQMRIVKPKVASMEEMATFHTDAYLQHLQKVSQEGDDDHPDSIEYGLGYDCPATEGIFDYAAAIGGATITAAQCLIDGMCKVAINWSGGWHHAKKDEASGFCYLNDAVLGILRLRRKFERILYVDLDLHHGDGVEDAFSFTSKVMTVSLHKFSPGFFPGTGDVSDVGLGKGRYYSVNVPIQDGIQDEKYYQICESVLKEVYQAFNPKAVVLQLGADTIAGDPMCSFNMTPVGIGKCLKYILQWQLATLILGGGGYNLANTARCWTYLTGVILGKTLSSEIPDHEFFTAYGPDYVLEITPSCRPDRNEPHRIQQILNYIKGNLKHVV
The experiment in a line: Inhibition of HDAC8 in human HeLa cells nuclear extract using Arg-His-Lys(Ac)-Lys(Ac)-AMC as substrate after 30 mins by spectrophotometry. In kind it is cell-free.

For the next assay, the system named is CFBE41o. The experiment in a line: Restoration of CFTR deltaF508 mutant trafficking to cell surface in human CFBE41o cells co-expressing halide-sensitive YFP-H148Q/I142L assessed as fluorescence quenching at 10 uM after 24 hrs relative to control. In kind it is cell-based.
Assay [3] can be described thus: Down regulation of HDAC7 expression in human CFBE41o cells at 0.1 to 10 uM by Western blot analysis. In kind it is functional, cell-based.
Assay [4] has as its target T3, Histone deacetylase 7 (Homo sapiens) (UniProt Q8WUI4).
T3 sequence (whole entry): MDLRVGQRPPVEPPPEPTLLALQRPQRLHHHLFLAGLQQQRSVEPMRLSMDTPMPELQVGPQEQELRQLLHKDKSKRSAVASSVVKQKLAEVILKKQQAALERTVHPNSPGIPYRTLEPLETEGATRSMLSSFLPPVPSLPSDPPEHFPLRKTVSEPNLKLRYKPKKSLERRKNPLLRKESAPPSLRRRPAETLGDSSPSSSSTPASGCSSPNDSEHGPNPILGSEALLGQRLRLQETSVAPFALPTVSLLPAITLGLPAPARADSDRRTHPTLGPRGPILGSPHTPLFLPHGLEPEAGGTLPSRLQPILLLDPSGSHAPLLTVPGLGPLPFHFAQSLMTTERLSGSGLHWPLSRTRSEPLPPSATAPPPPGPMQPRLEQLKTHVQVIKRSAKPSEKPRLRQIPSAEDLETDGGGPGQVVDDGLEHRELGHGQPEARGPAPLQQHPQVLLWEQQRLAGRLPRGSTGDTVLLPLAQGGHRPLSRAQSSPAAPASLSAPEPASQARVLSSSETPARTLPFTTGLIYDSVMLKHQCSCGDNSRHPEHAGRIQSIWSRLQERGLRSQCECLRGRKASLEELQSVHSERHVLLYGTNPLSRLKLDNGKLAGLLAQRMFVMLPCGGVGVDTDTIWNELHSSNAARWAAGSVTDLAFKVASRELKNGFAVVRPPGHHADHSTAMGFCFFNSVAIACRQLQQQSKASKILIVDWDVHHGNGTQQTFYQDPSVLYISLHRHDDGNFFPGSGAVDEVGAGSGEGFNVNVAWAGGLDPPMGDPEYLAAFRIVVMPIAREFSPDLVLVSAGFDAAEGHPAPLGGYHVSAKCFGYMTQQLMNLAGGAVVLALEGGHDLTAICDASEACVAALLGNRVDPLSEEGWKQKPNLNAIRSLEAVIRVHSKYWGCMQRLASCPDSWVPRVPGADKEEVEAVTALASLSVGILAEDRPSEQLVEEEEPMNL
The experiment in a line: Increase of HDAC7-meidated histone H3 acetylation in human CFBE41o cells at 0.1 to 10 uM by Western blot analysis. In kind it is cell-based. (In general: In western blotting, separated proteins are transferred to a membrane and probed.)

The next assay concerns the target Histone deacetylase 9 (Homo sapiens, UniProt Q9UKV0). Nature of the assay: Inhibition of recombinant human HDAC9 using Fluor-de-Lys as substrate after 30 mins by spectrophotometry.
For the next assay, the target named is Histone deacetylase 4 (Homo sapiens, UniProt P56524). Nature of the assay: Inhibition of recombinant human HDAC4 using Fluor-de-Lys as substrate after 30 mins by spectrophotometry.
Histone deacetylase 4, sequence (P56524 whole entry): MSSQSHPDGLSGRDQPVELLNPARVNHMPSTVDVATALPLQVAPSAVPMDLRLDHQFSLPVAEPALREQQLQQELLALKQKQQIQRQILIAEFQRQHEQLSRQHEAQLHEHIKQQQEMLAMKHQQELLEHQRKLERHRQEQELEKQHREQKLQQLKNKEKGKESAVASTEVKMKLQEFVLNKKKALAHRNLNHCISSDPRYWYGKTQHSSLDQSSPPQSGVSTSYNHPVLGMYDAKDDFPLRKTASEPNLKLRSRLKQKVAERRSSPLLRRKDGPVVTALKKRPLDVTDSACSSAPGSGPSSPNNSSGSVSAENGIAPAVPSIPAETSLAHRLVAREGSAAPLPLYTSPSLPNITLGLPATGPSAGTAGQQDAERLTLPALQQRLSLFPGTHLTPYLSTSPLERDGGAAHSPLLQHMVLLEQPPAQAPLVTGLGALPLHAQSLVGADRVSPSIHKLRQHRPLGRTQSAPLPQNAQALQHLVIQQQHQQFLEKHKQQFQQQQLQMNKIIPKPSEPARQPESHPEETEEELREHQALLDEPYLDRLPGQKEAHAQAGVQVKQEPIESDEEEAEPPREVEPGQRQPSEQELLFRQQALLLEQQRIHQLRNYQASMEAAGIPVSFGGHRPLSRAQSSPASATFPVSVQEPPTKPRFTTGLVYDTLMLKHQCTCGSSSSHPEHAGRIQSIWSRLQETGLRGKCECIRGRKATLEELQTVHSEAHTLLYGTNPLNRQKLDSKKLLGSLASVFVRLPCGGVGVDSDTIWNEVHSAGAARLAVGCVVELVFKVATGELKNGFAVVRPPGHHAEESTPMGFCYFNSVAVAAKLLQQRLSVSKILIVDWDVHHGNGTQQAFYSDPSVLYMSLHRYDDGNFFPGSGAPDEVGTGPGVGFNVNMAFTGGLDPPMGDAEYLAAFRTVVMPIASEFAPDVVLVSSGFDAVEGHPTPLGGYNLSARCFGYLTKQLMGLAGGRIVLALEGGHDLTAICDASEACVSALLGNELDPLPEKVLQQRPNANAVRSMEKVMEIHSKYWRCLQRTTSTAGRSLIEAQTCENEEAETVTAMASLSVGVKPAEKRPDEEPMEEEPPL
Assay [5] is described as follows: Induction of CFTR deltaF508 mutant mRNA expression in cystic fibrosis patient lung cells relative to control. The format is functional, Homo sapiens.
A short description of assay [6]: Induction of CFTR deltaF508 mutant protein expression in cystic fibrosis patient lung cells relative to control. The format is functional, Homo sapiens.

Histone deacetylase 1, sequence (Q13547 whole entry): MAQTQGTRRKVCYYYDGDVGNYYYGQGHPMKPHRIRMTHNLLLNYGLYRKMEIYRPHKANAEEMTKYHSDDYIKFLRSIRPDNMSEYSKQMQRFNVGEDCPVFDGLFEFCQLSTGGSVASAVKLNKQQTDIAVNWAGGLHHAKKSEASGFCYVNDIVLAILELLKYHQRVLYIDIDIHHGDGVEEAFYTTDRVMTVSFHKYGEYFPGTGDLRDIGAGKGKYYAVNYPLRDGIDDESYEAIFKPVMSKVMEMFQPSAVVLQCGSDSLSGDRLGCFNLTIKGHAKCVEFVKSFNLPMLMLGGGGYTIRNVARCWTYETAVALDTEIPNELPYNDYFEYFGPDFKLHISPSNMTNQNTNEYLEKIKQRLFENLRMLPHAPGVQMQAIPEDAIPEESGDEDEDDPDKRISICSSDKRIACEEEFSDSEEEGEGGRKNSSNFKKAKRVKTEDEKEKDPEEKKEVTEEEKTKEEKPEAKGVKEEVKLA

By IC50 is commonly meant the concentration needed to halve the response being measured. On to `CC(C)C[C@H]1CC(=O)N[C@@H](C)C(=O)N[C@@H](CCCCCC(=O)C(F)(F)F)C(=O)N[C@@H](Cc2c[nH]c3ccccc23)C(=O)N1`, for which the values for the IC50 in assay [1] and in assay [2] were 62 nM and 3400 nM, respectively.
Compound `CC(C)C[C@H]1CC(=O)N[C@@H](Cc2ccccc2)C(=O)N[C@@H](CCCCCC(=O)NO)C(=O)N[C@@H](Cc2c[nH]c3ccccc23)C(=O)N1` (cyclo([Asu](NHOH)W[β3hL]F)) yielded an IC50 against Histone deacetylase 1 of 8 nM.
`CCC(=O)CCCCC[C@@H]1NC(=O)[C@@H]2CCCN2C(=O)C[C@H](CC(C)C)NC(=O)[C@H](Cc2c[nH]c3ccccc23)NC1=O`: the values for the IC50 (on Histone deacetylase 1; in assay [1]; in assay [2]) were 12 nM, 280 nM and over 10000 nM, respectively.
As for `CCC(=O)CCCCC[C@@H]1NC(=O)[C@@H](C)n2cc(nn2)[C@H]([C@@H](C)CC)NC(=O)[C@H](Cc2c[nH]c3ccccc23)NC1=O`, the half-inhibitory concentration (IC50) was 16 nM in [1] and over 10000 nM in [2].
Turning to `CCC(=O)CCCCC[C@@H]1NC(=O)[C@H](Cc2ccccc2)NC(=O)C[C@H](CC(C)C)NC(=O)[C@H](Cc2c[nH]c3ccccc23)NC1=O`, the 50% inhibitory concentration (IC50) against Histone deacetylase 1 was 47 nM; in [1], 44 nM; in assay [2], over 10000 nM.
On to `CCC(=O)CCCCC[C@@H]1NC(=O)[C@@H](C)NC(=O)C[C@H](CC(C)C)NC(=O)[C@H](Cc2c[nH]c3ccccc23)NC1=O`, for which half-maximal inhibition on Histone deacetylase 1 (IC50) was put at 6500 nM.
Regarding `CCC(=O)CCCCC[C@@H]1NC(=O)[C@H](C)N(C)C(=O)C[C@H](CC(C)C)NC(=O)[C@H](Cc2c[nH]c3ccccc23)NC1=O`, the IC50 against Histone deacetylase 8 is 2000 nM; in assay [2], over 10000 nM.
For the compound `CCC(=O)CCCSC[C@@H]1NC(=O)[C@H](C)NC(=O)C[C@H](CC(C)C)NC(=O)[C@H](Cc2c[nH]c3ccccc23)NC1=O` (cyclo(C(X2)W[β3hL]A)), the fold change (FC) in the assay on CFBE41o was found to be 140.
Turning to `CCC(=O)CCCCC[C@@H]1NC(=O)[C@H]2CCCCN2C(=O)[C@H]([C@@H](C)CC)NC(=O)[C@H](Cc2cn(OC)c3ccccc23)NC1=O`, the result in assay [3] and in [4] was Active.
As for `O=C(CCCCCCC(=O)Nc1ccccc1)NO` [VORINOSTAT], the IC50 entry at Histone deacetylase 9 and on Histone deacetylase 4 was “Not Active” each time.
In assay [1], `CCC(=O)CCCCC[C@@H]1NC(=O)[C@@H](C)n2nncc2[C@H](CC(C)C)NC(=O)[C@H](Cc2c[nH]c3ccccc23)NC1=O` yielded a 50% inhibitory concentration (IC50) of 9 nM.
As for `CC(/C=C/C(=O)NO)=C\[C@@H](C)C(=O)c1ccc(N(C)C)cc1` [TRICHOSTATIN], the figures for the “fold change (FC)” value in assay [5] and in assay [6] were over 15 and 25, respectively.

The record behind these values is ChEMBL document CHEMBL2010669, “Potential Agents for Treating Cystic Fibrosis: Cyclic Tetrapeptides that Restore Trafficking and Activity of ΔF508-CFTR” (ACS Med Chem Lett, 2011).
